The target in this test is T1, Beta-glucuronidase (Homo sapiens, UniProt P08236).
T1 sequence (P08236 whole entry): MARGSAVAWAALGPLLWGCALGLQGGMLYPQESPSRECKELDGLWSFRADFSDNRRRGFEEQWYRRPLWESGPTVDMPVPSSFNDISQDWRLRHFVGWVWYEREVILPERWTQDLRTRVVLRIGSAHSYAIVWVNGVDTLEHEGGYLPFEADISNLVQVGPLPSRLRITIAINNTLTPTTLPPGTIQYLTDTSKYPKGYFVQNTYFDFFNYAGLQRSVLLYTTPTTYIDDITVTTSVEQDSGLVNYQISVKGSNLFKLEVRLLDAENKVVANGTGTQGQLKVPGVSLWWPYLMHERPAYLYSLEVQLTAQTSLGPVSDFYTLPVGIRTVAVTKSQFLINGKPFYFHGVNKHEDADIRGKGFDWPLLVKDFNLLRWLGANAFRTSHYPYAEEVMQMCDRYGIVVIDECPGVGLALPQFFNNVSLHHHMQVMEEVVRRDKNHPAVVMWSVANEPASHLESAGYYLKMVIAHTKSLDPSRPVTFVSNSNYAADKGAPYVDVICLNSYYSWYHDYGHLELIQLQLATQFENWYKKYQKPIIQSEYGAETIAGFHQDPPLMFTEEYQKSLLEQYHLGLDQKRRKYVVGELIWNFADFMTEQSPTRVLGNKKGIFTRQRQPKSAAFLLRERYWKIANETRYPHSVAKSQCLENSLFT
The test is described as follows: Inhibition of beta-glucuronidase (unknown origin) using p-nitrophenyl-beta-D-glucuronide as substrate pre-incubated for 30 mins followed by substrate addition by spectrophotometric method.

Each structure is given as a SMILES string.

Here are results for one molecule from ChEMBL document CHEMBL4627307, “One-pot synthesis of thioxo-tetrahydropyrimidine derivatives as potent β-glucuronidase inhibitor, biological evaluation, molecular docking and molecular dynamics studies” (Bioorg Med Chem, 2020).

By IC50 is commonly meant the concentration at which inhibition is half-maximal. The molecule `CCN(CC)C(=O)C1=C(C)N=C(S)NC1c1cccs1` (stereo unspecified) returned an IC50 of 350 nM.
